In patent US6452008B2, “Pyridone derivatives and process for preparing the same” (Sumitomo Pharmaceuticals Company, Limited, priority 1998, dated 2002):

Target: T1, ACAT (Rattus norvegicus, UniProt O70536)
T1 construct: The rat peritoneal-derived macrophage was prepared; endogenous in cells; host or cells: rat peritoneal macrophages (primary)
T1 sequence (O70536 1-545): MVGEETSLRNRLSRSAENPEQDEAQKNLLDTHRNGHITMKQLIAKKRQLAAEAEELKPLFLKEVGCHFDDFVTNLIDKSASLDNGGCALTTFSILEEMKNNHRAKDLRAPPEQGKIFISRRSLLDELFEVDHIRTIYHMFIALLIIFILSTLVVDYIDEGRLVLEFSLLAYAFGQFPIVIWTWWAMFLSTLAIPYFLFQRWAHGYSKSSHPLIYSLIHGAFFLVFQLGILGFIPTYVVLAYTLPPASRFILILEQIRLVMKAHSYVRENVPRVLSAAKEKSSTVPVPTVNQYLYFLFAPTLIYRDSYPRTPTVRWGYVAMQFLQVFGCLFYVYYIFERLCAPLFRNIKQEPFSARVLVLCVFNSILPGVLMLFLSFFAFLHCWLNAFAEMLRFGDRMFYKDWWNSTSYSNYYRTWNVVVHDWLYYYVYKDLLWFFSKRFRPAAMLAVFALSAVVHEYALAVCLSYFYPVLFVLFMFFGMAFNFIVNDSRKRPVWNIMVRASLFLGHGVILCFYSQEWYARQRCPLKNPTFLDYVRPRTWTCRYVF
Assay: Assay of ACAT inhibitory activity in the macrophage derived from rat peritoneal
Assay type: cell-based
Details: [9,10-3H]oleic acid, exogenous cholesterol in liposome
Procedure: 2. Assay of ACAT inhibitory activity in the macrophage derived from rat peritoneal:
The rat peritoneal-derived macrophage was prepared according to the method disclosed in the literature: Biochimica et Biophysica Acta, 1126, 73-80, 1992. The ACAT activity was determined by a modified method of the method disclosed in the above literature: Biochimica et Biophysica Acta, 1126, 73-80, 1992, i.e., using radioactive [9,10-^3H]oleic acid and exogenous cholesterol contained in the liposome which was re-constituted according to the method disclosed in the literature: Biochimica et Biophysica Acta, 1213, 127-134, 1994, and calculated from the radioactivity of the labeled cholesterolyl oleate.

## CCCCn1cc(C)c(-c2cc(C#CCN(CC)CC)ccc2OC)c(NC(=O)Nc2c(C(C)C)cccc2C(C)C)c1=O [Example 18, N-[1-butyl-2-oxo-4-[5-{3-(diethylamino)-1-propynyl}-2-methoxy]phenyl-5-methyl-1,2-dihydropyridin-3-yl]-N′-(2,6-diisopropylphenyl) urea]
  IC50: 16 nM
